Results: patent US20190308956A1, “PIPERAZINE DERIVATIVES AS ANTIVIRAL AGENTS WITH INCREASED THERAPEUTIC ACTIVITY” (SERVICIO ANDALUZ DE SALUD, priority 2016, published 2019)

Key:
HAdV5-GFP = assay: Plaque assay, HAdV5-GFP in 293β5 cells; type: cell-based; conditions: for Selectivity Index (SI) HAdV5: ratio CC50 to IC50, HAdV5; for IC50: read-out: IC50 HAdV5; for inhibition at 10 µM: read-out: Percentage of plaque formation inhibition, HAdV5-GFP, 10 μM, 293β5 cell line
Outline: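 293β5 cells infected with HAdV5-GFP at 0.06 vp/cell for 2 h at 37° C. Then overlaid with agar/EMEM containing compound (5 to 1 μM stated range; screen run at 10 μM). After 7 days at 37° C., GFP plaques imaged and counted relative to DMSO control.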

HAdV16-GFP = assay: Plaque assay, HAdV16-GFP in 293β5 cells; type: cell-based; conditions: for Selectivity Index (SI) HAdV16: ratio CC50 to IC50, HAdV16
Method: 1.5. Plaque assay. For low MOI infections, active compounds were further evaluated in a plaque assay. 293β5 cells were seeded in 6-well plates at 4×10^5 cells per well in duplicate for each condition. When cells reached 80-90% confluency, they were infected with HAdV5-GFP or HAdV16-GFP (0.06 vp/cell) and rocked for 2 h at 37° C. The inoculum was removed and the cells were washed once with PBS. The cells were then carefully overlaid with 4 ml/well of equal parts of 1.6% […] Difco Agar Noble (Becton, Dickinson & Co, Sparks, MD) and 2× EMEM (BioWhittaker) supplemented with 2x penicillin/streptomycin, 2× L-glutamine and 10% FBS. The mixture also contained compound in concentrations ranging from 5 to 1 μM. Following incubation for 7 days at 37° C., plates were scanned with a Typhoon 9410 imager (GE Healthcare Life Sciences), and plaques were quantified with ImageJ.43

[1] = Cytotoxicity assay (alamarBlue cell viability); type: cell-based, Human; conditions: human, A549 cells, 48 h
Outline: (§1)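 Actively dividing A549 cells exposed to compounds for 48 h, then alamarBlue (1/10th in culture medium) added for a further 4 h. CC50 taken as concentration giving 50% cytotoxicity; selectivity index = CC50/IC50, with IC50 from HAdV infection inhibition.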

A549 cells = assay: Cytotoxicity assay (alamarBlue cell viability); type: cell-based, Human; conditions: A549 cells, 48 h; read-out: CC50
Outline: as §1

wild-type HAdV5 = assay: Virus yield reduction (burst assay, TCID50), HAdV5; type: cell-based; conditions: 50 μM, A549 cells, 48 h, yield with DMSO divided by yield with compound
Method: (§2) 1.8. Virus yield reduction. The effect of the active compounds on virus production was evaluated in a burst assay A549 cells were infected with wild-type HAdV5 or HAdV16 (MOI 100) in the presence or absence of 50 μM compounds. After 48 h, cells were harvested and subjected to three rounds of freeze/thaw. Serial dilutions of clarified lysates were titrated on A549 cells and TCID50 values were calculated using an endpoint dilution method.46

wild-type HAdV16 = assay: Virus yield reduction (burst assay, TCID50), HAdV16; type: cell-based; conditions: 50 μM, A549 cells, 48 h, yield with DMSO divided by yield with compound
Method: as §2

HCMV (AD169) = assay: HCMV infectivity assay by quantitative PCR; type: cell-based, human cytomegalovirus; conditions: Human betaherpesvirus 5, AD169, MRC5, MRC-5 cells, 72 h, qPCR, read-out: Inhibition of HCMV DNA replication
Method: 1.9. HCMV infectivity assay by quantitative PCR. […] After 72 h of incubation at 37° C., DNA was purified from the cell lysate with the QlAamp DNA Mini Kit (QIAGEN, Valencia, Calif.) following the manufacturer's instructions. TaqMan primers and probes for a region of the US28 gene were designed with the GenScript Real-time PCR (TaqMan) Primer Design software (GenScript). Oligonucleotides sequences were CMV-F: 5′-[…]-3′; CMV-R: 5′-[…]-3′; and CMV-Probe: 5′-[…]-3′. Real-time PCR mixtures consisted of 10 μl the purified DNA, CMV-F at a concentration of 100 nM, CMV-R at a concentration of 300 nM, and CMV-Probe at a concentration of 50 nM in a total volume of 12.5 μl and mixed with 12.5 μl of KAPA PROBE FAST qPCR Master Mix (KAPABiosystems, MA). The PCR cycling protocol was 95° C. for 10 min followed by 40 cycles of 95° C. for 30 sec and 58° C. for 60 sec. Human glyceraldehyde-3-phosphate dehydrogenase (GAPDH) was used as internal control. Oligonucleotides sequences for GAPDH and conditions were those previously reported by Rivera et al.44 For quantification, gene fragment from US28 and GAPDH were cloned into the pGEM-T Easy vector (Promega) and known concentrations of template were used to generate a standard curve in parallel for each experiment. All assays were performed in a C1000 Thermal Cycler apparatus (BioRad).

wild type HAdV5 = assay: HAdV5 DNA quantification by real-time PCR; type: cell-based; conditions: A549, 24 h, A549 cells, 24 h post-infection, qPCR, read-out: Inhibition of HAdV5 DNA replication
Method: 1.6. DNA quantification by real-time PCR. For DNA quantification, A549 cells (150,000 cells/well in a 24 wells-plate) were infected with wild type HAdV5 or HAdV16 (100 vp/cell) and incubated for 2 h at 37° C. in complete DMEM. After the incubation, excess virus was removed and the medium was replaced with 500 μl of complete DMEM containing 50 μM of either compounds or the same volume of DMSO (positive control). All samples were done in triplicate. After 24 h of incubation at 37° C., DNA was purified from the cell lysate with the QlAamp DNA Mini Kit (QIAGEN, Valencia, Calif.) following the manufacturer's instructions. TaqMan primers and probes for a region of the HAdV5 hexon were designed with the GenScript Real-time PCR (TaqMan) Primer Design software (GenScript). Oligonucleotides sequences were AdF: 5′-[…]-3′; AdR: 5′-[…]-3′; and AdProbe: 5′-[…]-3′. […]
Human glyceraldehyde-3-phosphate dehydrogenase (GAPDH) gene was used as internal control. Oligonucleotides sequences for GAPDH and conditions were those previously reported by Rivera et al.44 For quantification, gene fragments from hexon and GAPDH were cloned into the pGEM-T Easy vector (Promega) and known concentrations of template were used to generate a standard curve in parallel for each experiment. […]

SMILES	Selectivity Index (SI) HAdV5 (HAdV5-GFP)	IC50 (HAdV5-GFP) [nM]	inhibition at 10 µM (HAdV5-GFP) [%]	IC50 (HAdV16-GFP) [nM]	Selectivity Index (SI) HAdV16 (HAdV16-GFP)	CC50 at 48 h [1] [nM]	CC50 (A549 cells) [nM]	Virus yield reduction HAdV5 (wild-type HAdV5) [fold]	Virus yield reduction HAdV16 (wild-type HAdV16) [fold]	inhibition at 50 µM (HCMV (AD169)) [%]	inhibition at 50 µM (wild type HAdV5) [%]
O=C(c1cc2ccccc2o1)N1CCN(C(=O)Nc2ccccc2[N+](=O)[O-])C(c2ccccc2)C1 (centres unmarked) [Compound 64, 4-(Benzofuran-2-carbonyl)-1-[(2-nitrophenyl)aminocarbonyl]-2-phenylpiperazine]	53.3	2500 ± 30	96 to 100	2300 ± 170	57.3	132000 ± 6010	132000 ± 6010	34.5 ± 12.6	46.5 ± 10.8	97.9 ± 0.9	
O=C(c1cc2ccccc2o1)N1CCN(C(=O)Nc2cc(C(F)(F)F)ccc2Cl)C(c2ccccc2)C1 (centres unmarked) [Compound 65, 4-(Benzofuran-2-carbonyl)-1-[(2-chloro-5-trifluoromethylphenyl)aminocarbonyl]-2 phenylpiperazine]	116.2	1100 ± 50	96 to 100	1800 ± 200	72.7	131000 ± 17800		60.3 ± 15.2	33.2 ± 7.3	98.2 ± 0.38	33.1 ± 0.5
